{"source": "patent US7445931B2", "about": "“Compositions and methods for enrichment of neural stem cells using ceramide analogs” (Bresagen, Inc., priority 2002, dated 2008)", "test_system": "differentiating ES cells", "test": "Apoptosis (TUNEL) in ceramide-depleted differentiating ES cells and its restoration by ceramide or analogs", "format": "cell-based, mouse", "method": "Fumonisin B1 (FB1) or myriocin-treated (ceramide-depleted) differentiating ES cells were incubated with natural ceramide. To prepare the natural ceramide, 50 mg of EBs or NPs were resuspended in 500 μl of water, and after phase separation with 500 μl of CHCl3/CH3OH (1:1 by vol.) the neutral lipids were recovered from the lower phase. The neutral lipids were evaporated to dryness with a gentle stream of nitrogen and redissolved in 1 ml of CHCl3. The solution was applied to a silicic acid gel column (0.5 g) and fatty acids and cholesterol washed out with another 15 ml of CHCl3 (Dasgupta and Hogan, 2001 J. Lipid Res., 42:301-308). The ceramide fraction was then eluted with 20 ml of CHCl3/acetone (9:1, by vol.), evaporated to dryness, and the residue (approximately 6 nmoles of ceramide) dissolved in 20 μl of ethanol containing 2% dodecane (vol./vol.). Aliquots of 5 μl were mixed with 1 ml of medium, yielding a final concentration of 1.5 μM natural ceramide for induction of apoptosis (Ji et al., 1995 FEBS Lett., 358:211-214).\nDifferentiating ES cells at the EB8 cells were dissociated and grown for 24 hours on laminin/ornithin-coated cover slips (NP1 stage) in DMEM/F12 (50/50), supplemented with 1×N2 and 20 ng/ml FGF-2. Cells were incubated for 3 hours with 10 μM bromodeoxyuridine (BrdU) and the TUNEL assay or immunostainings performed after 5 hours of incubation. For immunostaining, cells were fixed with 4% paraformaldehyde in phosphate-buffered saline (PBS). Fixed cells were permeabilized with 0.2% Triton X-100 in PBS for 5 minutes at room temperature and immunostaining performed as described previously (Bieberich et al., 2001 J. Biol. Chem., 276:44396-44404). The nuclei were stained by treatment with 2 μg/ml Hoechst 33258 in PBS for 30 minutes at room temperature. Apoptotic nuclei were stained using the fluorescein FragEL TUNEL assay according to instructions of the manufacturer (Oncogene).\nThe degree of apoptosis in differentiating ES cultures was determined since it was previously proposed that ceramide elevation induces apoptosis in NPs (Bieberch et al., 2001 J. Biol. Chem., 276:44396-44404). […] Apoptosis was elevated at the EB8 stage ([…]), and was highest at the NP2 stage (35+/−5%). […] Apoptosis was restored by the addition of 30 μM N-acetyl sphingosine (C2-ceramide), 80 μM of the novel ceramide analog N-oleoyl serinol (S18), or 1 μM of natural ceramide that was extracted from differentiating ES cells.", "key": {"[1]": {"details": "FB1-treated cells at the NP2 stage"}}}
{"smiles": "CCCCCCCC/C=C\\CCCCCCCC(=O)NC(CO)CO", "note": "[S18, N-(2-hydroxy-1-(hydroxymethyl)ethyl)-oleoylamide]", "values": [{"measurement": "dependence of apoptosis on PAR-4 expression", "setting": "[1]", "result": "only seen in cells that expressed PAR-4"}, {"measurement": "number of PAR-4 positive cells", "setting": "[1]", "result": "did not alter the number of PAR-4 positive cells"}, {"measurement": "restoration of apoptosis in FB1-treated cells", "setting": "NP2 stage, 30 μM C2-ceramide, 80 μM S18, or 1 μM natural ceramide", "result": "restored"}, {"measurement": "concentration of endogenous ceramide", "setting": "S18 incubation of FB1-treated cells at the NP2 stage", "result": "did not alter the concentration of endogenous ceramide"}]}
